The values below come from the supplement of paper PMC10307832.

Holding throughout (test): relative viability (nuclei count vs DMSO), 5 days (fraction); higher = more cells survive
Compound in experiment [1]: O=C(c1cc(Cc2n[nH]c(=O)c3ccccc23)ccc1F)N1CCN(C(=O)C2CC2)CC1 [Olaparib] + Nc1ncn([C@H]2C[C@H](O)[C@@H](CO)O2)c(=O)n1 [Decitabine] (partner 2 µM)
An outline of the steps: (§1)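 Relative viability equals treated-well nuclei counts divided by vehicle-well nuclei counts. Counts came from 4× images of lung cancer cell lines grown in 1536-well plates for 5 days after pin-tool dosing on the day after seeding. Dosing used one drug alone or a fixed anchor-drug dose plus five library-drug doses (not always all listed) in √10 steps, and values are medians of duplicate plates.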

Compound in experiment [2]: C[C@@H](Oc1cc(-c2cnn(C3CCNCC3)c2)cnc1N)c1c(Cl)ccc(F)c1Cl [Crizotinib] + CC(=O)Nc1cccc(-n2c(=O)n(C3CC3)c(=O)c3c(Nc4ccc(I)cc4F)n(C)c(=O)c(C)c32)c1 [Trametinib] (partner 0.02 µM)
An outline of the steps: as §1

Compound in experiment [3]: CC(C)C[C@H](NC(=O)[C@H](CCc1ccccc1)NC(=O)CN1CCOCC1)C(=O)N[C@@H](Cc1ccccc1)C(=O)N[C@@H](CC(C)C)C(=O)[C@@]1(C)CO1 [Carfilzomib] + Cc1nc(Nc2ncc(C(=O)Nc3c(C)cccc3Cl)s2)cc(N2CCN(CCO)CC2)n1 [Dasatinib] (partner 0.075 µM)
An outline of the steps:
as §1

Compound in experiment [4]: C[C@@H](Oc1cc(-c2cnn(C3CCNCC3)c2)cnc1N)c1c(Cl)ccc(F)c1Cl [Crizotinib] + CC1(C)CCC(c2ccc(Cl)cc2)=C(CN2CCN(c3ccc(C(=O)NS(=O)(=O)c4ccc(N[C@H](CCN5CCOCC5)CSc5ccccc5)c(S(=O)(=O)C(F)(F)F)c4)cc3)CC2)C1 [Navitoclax] (partner 0.5 µM)
An outline of the steps: as §1

For NCI-H1648, the relative viability stood at 0.431 in experiment [1] (first compound 0.08 µM); 0.384 in experiment [1] (first compound 0.253 µM); 0.44 in experiment [1] (first compound 8 µM); 0.462 in experiment [2] (first compound 0.03162 µM); 0.539 in experiment [2] (first compound 0.1 µM); 0.483 in experiment [2] (first compound 0.3162 µM). In addition, the relative viability in experiment [2] (first compound 1 µM) was found to be 0.463.
Regarding NCI-H661, the relative viability in experiment [3] (first compound 0.001 µM) came to 0.911; in experiment [3] (first compound 0.003162 µM), 1.07; in experiment [3] (first compound 0.01 µM), 1.03; in experiment [3] (first compound 0.03162 µM), 0.72; in experiment [3] (first compound 0.1 µM), 0.172; in experiment [1] (first compound 0.08 µM), 0.454. The relative viability in experiment [1] (first compound 0.253 µM) stood at 0.434; in experiment [1] (first compound 2.53 µM), 0.4; in experiment [1] (first compound 8 µM) it was 0.382; in experiment [2] (first compound 0.01 µM), 0.536; in experiment [2] (first compound 0.03162 µM), 0.563; in experiment [2] (first compound 0.1 µM) it was 0.536. Moreover, the values for the relative viability in experiment [2] (first compound 0.3162 µM) and in experiment [2] (first compound 1 µM) were 0.61 and 0.549, respectively.
Consider NCI-H650, for which the relative viability in experiment [3] (first compound 0.003162 µM) amounted to 0.515; in experiment [3] (first compound 0.01 µM), 0.457; in experiment [3] (first compound 0.03162 µM), 0.359; in experiment [3] (first compound 0.1 µM) it was 0.164; in experiment [1] (first compound 0.08 µM), 0.266; in experiment [1] (first compound 0.253 µM) it was 0.293. Moreover, the relative viability in experiment [1] (first compound 2.53 µM) stood at 0.241; in experiment [1] (first compound 8 µM), 0.281; in experiment [2] (first compound 0.01 µM), 0.955; in experiment [2] (first compound 0.03162 µM), 1.04.
For RERF-LC-KJ, the relative viability in experiment [3] (first compound 0.001 µM) came out at 0.792; in experiment [3] (first compound 0.003162 µM) it was 0.82; in experiment [3] (first compound 0.01 µM), 0.867; in experiment [3] (first compound 0.03162 µM), 0.388; in experiment [3] (first compound 0.1 µM) it was 0.184; in experiment [4] (first compound 0.01 µM), 1.18. In addition, the relative viability came out at 0.767 in experiment [4] (first compound 0.03162 µM); 1.13 in experiment [4] (first compound 0.1 µM); 0.682 in experiment [4] (first compound 0.3162 µM); 1.02 in experiment [4] (first compound 1 µM); 0.703 in experiment [1] (first compound 0.08 µM); 0.637 in experiment [1] (first compound 0.253 µM). Also, the relative viability in experiment [1] (first compound 2.53 µM) worked out at 0.558; in experiment [1] (first compound 8 µM), 0.451; in experiment [2] (first compound 0.01 µM), 0.955; in experiment [2] (first compound 0.03162 µM) it was 0.885; in experiment [2] (first compound 0.1 µM) it was 0.831; in experiment [2] (first compound 0.3162 µM) it was 0.827. The relative viability in experiment [2] (first compound 1 µM) amounted to 0.905.
Take SK-LU-1: the relative viability in experiment [3] (first compound 0.001 µM) was 0.167; in experiment [3] (first compound 0.003162 µM), 0.189; in experiment [3] (first compound 0.01 µM), 0.236; in experiment [3] (first compound 0.03162 µM), 0.0906; in experiment [3] (first compound 0.1 µM), 0.117; in experiment [4] (first compound 0.01 µM) it was 0.829. For the same cell line, the relative viability in experiment [4] (first compound 0.03162 µM) was found to be 0.851; in experiment [4] (first compound 0.1 µM), 0.887; in experiment [4] (first compound 0.3162 µM), 0.938; in experiment [4] (first compound 1 µM), 0.806; in experiment [1] (first compound 0.08 µM), 0.476; in experiment [1] (first compound 0.253 µM) it was 0.484. In addition, the relative viability in experiment [1] (first compound 2.53 µM) was 0.504; in experiment [1] (first compound 8 µM), 0.452; in experiment [2] (first compound 0.01 µM), 0.455; in experiment [2] (first compound 0.03162 µM), 0.396; in experiment [2] (first compound 0.1 µM) it was 0.539; in experiment [2] (first compound 0.3162 µM), 0.457. Moreover, the relative viability in experiment [2] (first compound 1 µM) was found to be 0.512.
As for NCI-H1792, the relative viability in experiment [3] (first compound 0.001 µM) is 0.753; in experiment [3] (first compound 0.003162 µM), 0.9; in experiment [3] (first compound 0.01 µM), 0.918; in experiment [3] (first compound 0.03162 µM), 0.657; in experiment [3] (first compound 0.1 µM), 0.649; in experiment [4] (first compound 0.01 µM), 0.629. The relative viability was determined as 0.679 in experiment [4] (first compound 0.03162 µM); 0.745 in experiment [4] (first compound 0.1 µM); 0.398 in experiment [4] (first compound 0.3162 µM); 0.577 in experiment [4] (first compound 1 µM); 0.336 in experiment [1] (first compound 0.08 µM); 0.264 in experiment [1] (first compound 0.253 µM). Also, the relative viability in experiment [1] (first compound 2.53 µM) was determined as 0.234; in experiment [1] (first compound 8 µM) it was 0.19; in experiment [2] (first compound 0.01 µM), 0.492; in experiment [2] (first compound 0.03162 µM), 0.526; in experiment [2] (first compound 0.1 µM) it was 0.365; in experiment [2] (first compound 1 µM), 0.453.
Turning to NCI-H1666, the relative viability was 0.812 in experiment [3] (first compound 0.001 µM); 0.878 in experiment [3] (first compound 0.003162 µM); 0.817 in experiment [3] (first compound 0.01 µM); 0.568 in experiment [3] (first compound 0.03162 µM); 0.352 in experiment [3] (first compound 0.1 µM); 0.93 in experiment [4] (first compound 0.01 µM). Further, the relative viability in experiment [4] (first compound 0.03162 µM) was 0.81; in experiment [4] (first compound 0.1 µM), 0.857; in experiment [4] (first compound 0.3162 µM), 0.876; in experiment [4] (first compound 1 µM), 1.06; in experiment [1] (first compound 0.08 µM), 0.778; in experiment [1] (first compound 0.253 µM) it was 0.604. In addition, the relative viability in experiment [1] (first compound 2.53 µM) worked out at 0.636; in experiment [1] (first compound 8 µM) it was 0.597; in experiment [2] (first compound 0.01 µM), 0.838; in experiment [2] (first compound 0.03162 µM), 0.865; in experiment [2] (first compound 0.1 µM) it was 0.866; in experiment [2] (first compound 1 µM), 0.902.
Regarding SK-MES-1, the relative viability came out at 0.323 in experiment [3] (first compound 0.001 µM); 0.454 in experiment [3] (first compound 0.003162 µM); 0.409 in experiment [3] (first compound 0.01 µM); 0.197 in experiment [3] (first compound 0.03162 µM); 0.107 in experiment [3] (first compound 0.1 µM); 1.2 in experiment [4] (first compound 0.01 µM). Moreover, the relative viability in experiment [4] (first compound 0.03162 µM) turned out to be 1.29; in experiment [4] (first compound 0.1 µM), 1.25; in experiment [4] (first compound 1 µM) it was 1.2; in experiment [1] (first compound 0.08 µM) it was 0.305; in experiment [1] (first compound 0.253 µM), 0.299; in experiment [1] (first compound 2.53 µM), 0.303. Besides, the relative viability in experiment [1] (first compound 8 µM) turned out to be 0.262; in experiment [2] (first compound 0.01 µM), 0.511; in experiment [2] (first compound 0.03162 µM), 0.561; in experiment [2] (first compound 0.1 µM), 0.54; in experiment [2] (first compound 0.3162 µM), 0.621; in experiment [2] (first compound 1 µM), 0.57.
